{"source": "ChEMBL document CHEMBL4765476", "about": "“MCC950, a NLRP3 inhibitor, ameliorates lipopolysaccharide-induced lung inflammation in mice” (Bioorg Med Chem, 2021)", "key": {"[1]": {"tested_on": "Mus musculus", "assay": "Antiinflammatory activity in ICR mouse assessed as reduction in LPS-induced neutrophils in BALF at 10 mg/kg, INH administered 18 hrs before LPS-stimulation and measured after 24 hrs by FACS analysis relative to control", "format": "functional", "conditions": "time 42 hrs"}, "[2]": {"tested_on": "Mus musculus", "assay": "Antiinflammatory activity in ICR mouse assessed as reduction in LPS-induced neutrophils in BALF at 50 mg/kg, INH administered 18 hrs before LPS-stimulation and measured after 24 hrs by FACS analysis relative to control", "format": "functional", "conditions": "time 42 hrs"}, "[3]": {"tested_on": "Mus musculus", "assay": "Antiinflammatory activity in ICR mouse assessed as reduction in LPS-induced macrophages level in BALF at 10 mg/kg, INH administered 18 hrs before LPS-stimulation and measured after 24 hrs by FACS analysis relative to control", "format": "functional", "conditions": "time 42 hrs"}, "[4]": {"tested_on": "Mus musculus", "assay": "Antiinflammatory activity in ICR mouse assessed as reduction in LPS-induced macrophages level in BALF at 50 mg/kg, INH administered 18 hrs before LPS-stimulation and measured after 24 hrs by FACS analysis relative to control", "format": "functional", "conditions": "time 42 hrs"}, "[5]": {"tested_on": "Mus musculus", "assay": "Antiinflammatory activity in ICR mouse assessed as reduction in LPS-induced lymphocyte level in BALF at 10 mg/kg, INH administered 18 hrs before LPS-stimulation and measured after 24 hrs by FACS analysis relative to control", "format": "functional", "conditions": "time 42 hrs"}, "[6]": {"tested_on": "Mus musculus", "assay": "Antiinflammatory activity in ICR mouse assessed as reduction in LPS-induced lymphocyte level in BALF at 50 mg/kg, INH administered 18 hrs before LPS-stimulation and measured after 24 hrs by FACS analysis relative to control", "format": "functional", "conditions": "time 42 hrs"}, "[7]": {"tested_on": "Mus musculus", "assay": "Antiinflammatory activity in ICR mouse assessed as reduction in LPS-induced neutrophils in BALF at 10 mg/kg, ip administered 18 hrs before LPS-stimulation and measured after 24 hrs by FACS analysis relative to control", "format": "functional", "conditions": "time 42 hrs"}, "[8]": {"tested_on": "Mus musculus", "assay": "Antiinflammatory activity in ICR mouse assessed as reduction in LPS-induced neutrophils in BALF at 50 mg/kg, ip administered 18 hrs before LPS-stimulation and measured after 24 hrs by FACS analysis relative to control", "format": "functional", "conditions": "time 42 hrs"}, "[9]": {"tested_on": "Mus musculus", "assay": "Antiinflammatory activity in ICR mouse assessed as reduction in LPS-induced macrophage level in BALF at 10 mg/kg, ip administered 18 hrs before LPS-stimulation and measured after 24 hrs by FACS analysis relative to control", "format": "functional", "conditions": "time 42 hrs"}, "[10]": {"tested_on": "Mus musculus", "assay": "Antiinflammatory activity in ICR mouse assessed as reduction in LPS-induced macrophage level in BALF at 50 mg/kg, ip administered 18 hrs before LPS-stimulation and measured after 24 hrs by FACS analysis relative to control", "format": "functional", "conditions": "time 42 hrs"}, "[11]": {"tested_on": "Mus musculus", "assay": "Antiinflammatory activity in ICR mouse assessed as reduction in LPS-induced lymphocyte level in BALF at 10 mg/kg, ip administered 18 hrs before LPS-stimulation and measured after 24 hrs by FACS analysis relative to control", "format": "functional", "conditions": "time 42 hrs"}, "[12]": {"tested_on": "Mus musculus", "assay": "Antiinflammatory activity in ICR mouse assessed as reduction in LPS-induced lymphocyte level in BALF at 50 mg/kg, ip administered 18 hrs before LPS-stimulation and measured after 24 hrs by FACS analysis relative to control", "format": "functional", "conditions": "time 42 hrs"}, "[13]": {"tested_on": "Mus musculus", "assay": "Antiinflammatory activity in ICR mouse assessed as reduction in LPS-induced neutrophil infiltration in lungs at 10 mg/kg, INH administered 18 hrs before LPS-stimulation and measured after 24 hrs by H and E staining based imaging analysis relative to control", "format": "functional", "conditions": "time 42 hrs"}, "[14]": {"tested_on": "Mus musculus", "assay": "Antiinflammatory activity in ICR mouse assessed as reduction in LPS-induced neutrophil infiltration in lungs at 50 mg/kg, INH administered 18 hrs before LPS-stimulation and measured after 24 hrs by H and E staining based imaging analysis relative to control", "format": "functional", "conditions": "time 42 hrs"}, "[15]": {"tested_on": "Mus musculus", "assay": "Antiinflammatory activity in ICR mouse assessed as reduction in LPS-induced neutrophil infiltration in lungs at 10 mg/kg, ip administered 18 hrs before LPS-stimulation and measured after 24 hrs by H and E staining based imaging analysis relative to control", "format": "functional", "conditions": "time 42 hrs"}, "[16]": {"tested_on": "Mus musculus", "assay": "Antiinflammatory activity in ICR mouse assessed as reduction in LPS-induced neutrophil infiltration in lungs at 50 mg/kg, ip administered 18 hrs before LPS-stimulation and measured after 24 hrs by H and E staining based imaging analysis relative to control", "format": "functional", "conditions": "time 42 hrs"}, "[17]": {"species_on_record": "Mus musculus", "conditions": "ICR, dose 10-50 mg/kg, time 42.0 hrs"}, "[18]": {"species_on_record": "Mus musculus", "conditions": "ICR, dose 10-50 mg/kg, time 42.0 hrs", "remark": "listed apart in the source"}, "[19]": {"species_on_record": "Mus musculus", "conditions": "ICR, dose 10-50 mg/kg, time 42.0 hrs", "remark": "listed apart in the source"}, "[20]": {"species_on_record": "Mus musculus", "conditions": "ICR, dose 50.0 mg/kg, time 42.0 hrs"}, "[21]": {"species_on_record": "Mus musculus", "conditions": "ICR, dose 10.0 mg/kg, time 42.0 hrs"}, "[22]": {"species_on_record": "Mus musculus", "conditions": "ICR, dose 10-50 mg/kg, time 42.0 hrs", "remark": "listed apart in the source"}, "[23]": {"species_on_record": "Mus musculus", "conditions": "ICR, dose 10-50 mg/kg, time 42.0 hrs", "remark": "listed apart in the source"}, "[24]": {"species_on_record": "Mus musculus", "conditions": "ICR, dose 10-50 mg/kg, time 42.0 hrs", "remark": "listed apart in the source"}, "[25]": {"species_on_record": "Mus musculus", "conditions": "ICR, dose 10-50 mg/kg, time 42.0 hrs", "remark": "listed apart in the source"}, "[26]": {"species_on_record": "Mus musculus", "conditions": "ICR, dose 10-50 mg/kg, time 42.0 hrs", "remark": "listed apart in the source"}, "[27]": {"species_on_record": "Mus musculus", "conditions": "ICR, dose 10-50 mg/kg, time 42.0 hrs", "remark": "listed apart in the source"}, "[28]": {"species_on_record": "Mus musculus", "conditions": "ICR, dose 10-50 mg/kg, time 42.0 hrs", "remark": "listed apart in the source"}, "[29]": {"species_on_record": "Mus musculus", "conditions": "ICR, dose 10-50 mg/kg, time 42.0 hrs", "remark": "listed apart in the source"}, "[30]": {"species_on_record": "Mus musculus", "conditions": "ICR, dose 10-50 mg/kg, time 42.0 hrs", "remark": "listed apart in the source"}, "[31]": {"species_on_record": "Mus musculus", "conditions": "ICR, dose 10-50 mg/kg, time 42.0 hrs", "remark": "listed apart in the source"}, "[32]": {"species_on_record": "Mus musculus", "conditions": "ICR, dose 10-50 mg/kg, time 42.0 hrs", "remark": "listed apart in the source"}, "[33]": {"species_on_record": "Mus musculus", "conditions": "ICR, dose 10-50 mg/kg, time 42.0 hrs", "remark": "listed apart in the source"}}, "note": "The source made the active and inactive calls. The calls are words filed in the database; no cut-off is given here."}
{"smiles": "CC(C)(O)c1coc(S(=O)(=O)NC(=O)Nc2c3c(cc4c2CCC4)CCC3)c1", "values": [{"measurement": "inhibition in vivo at 10 mg/kg", "setting": "[1]", "result": 46.5, "unit": "%"}, {"measurement": "inhibition in vivo at 50 mg/kg", "setting": "[2]", "result": 71.7, "unit": "%"}, {"measurement": "inhibition in vivo at 10 mg/kg", "setting": "[3]", "result": 36.6, "unit": "%"}, {"measurement": "inhibition in vivo at 50 mg/kg", "setting": "[4]", "result": 43.8, "unit": "%"}, {"measurement": "inhibition in vivo at 10 mg/kg", "setting": "[5]", "result": 28.3, "unit": "%"}, {"measurement": "inhibition in vivo at 50 mg/kg", "setting": "[6]", "result": 34.9, "unit": "%"}, {"measurement": "inhibition in vivo at 10 mg/kg", "setting": "[7]", "result": 44.2, "unit": "%"}, {"measurement": "inhibition in vivo at 50 mg/kg", "setting": "[8]", "result": 67.8, "unit": "%"}, {"measurement": "inhibition in vivo at 10 mg/kg", "setting": "[9]", "result": 53.2, "unit": "%"}, {"measurement": "inhibition in vivo at 50 mg/kg", "setting": "[10]", "result": 76.7, "unit": "%"}, {"measurement": "inhibition in vivo at 10 mg/kg", "setting": "[11]", "result": 40.3, "unit": "%"}, {"measurement": "inhibition in vivo at 50 mg/kg", "setting": "[12]", "result": 49.8, "unit": "%"}, {"measurement": "inhibition in vivo at 10 mg/kg", "setting": "[13]", "result": 35.3, "unit": "%"}, {"measurement": "inhibition in vivo at 50 mg/kg", "setting": "[14]", "result": 52.9, "unit": "%"}, {"measurement": "inhibition in vivo at 10 mg/kg", "setting": "[15]", "result": 37.1, "unit": "%"}, {"measurement": "inhibition in vivo at 50 mg/kg", "setting": "[16]", "result": 51.4, "unit": "%"}, {"measurement": "inhibition", "setting": "[17]", "result": "Active"}, {"measurement": "inhibition", "setting": "[18]", "result": "Active"}, {"measurement": "inhibition", "setting": "[19]", "result": "Active"}, {"measurement": "inhibition", "setting": "[20]", "result": "Active"}, {"measurement": "inhibition", "setting": "[21]", "result": "inactive"}, {"measurement": "inhibition", "setting": "[22]", "result": "Active"}, {"measurement": "inhibition", "setting": "[23]", "result": "Active"}, {"measurement": "inhibition", "setting": "[24]", "result": "Active"}, {"measurement": "inhibition", "setting": "[25]", "result": "Active"}, {"measurement": "inhibition", "setting": "[26]", "result": "Active"}, {"measurement": "inhibition", "setting": "[27]", "result": "Active"}, {"measurement": "inhibition", "setting": "[28]", "result": "Active"}, {"measurement": "inhibition", "setting": "[29]", "result": "Active"}, {"measurement": "inhibition", "setting": "[30]", "result": "Active"}, {"measurement": "inhibition", "setting": "[31]", "result": "Active"}, {"measurement": "inhibition", "setting": "[32]", "result": "Active"}, {"measurement": "inhibition", "setting": "[33]", "result": "Active"}]}
